Here are results for five molecules from patent US20120034193A1, “TREATMENT OF NEUROTROPHIC FACTOR MEDIATED DISORDERS” (priority 2009, published 2012).

Counter-ions that a name gives are not always drawn.

The test system of data set [1] is Rat spinal motor neurones. Kind of data set: Neuronal survival and neurite outgrowth in spinal motor neurones. It is filed as cell-based. The note with it: 3 days. The protocol:
Rat spinal motor neurones were prepared according to a previously described method (Martinou et al, Neuron, 8, 737-744, 1992). Following 3 days of culturing with sarsasapogenin, smilagenin, vehicle (DMSO, 0.25%), Xaliproden, or BDNF, spinal cord motor neurones were washed twice in PBS, fixed in a cold solution of alcohol (95%) and acetic acid (5%) for 5 min and then rinsed 3 times in PBS. Neurones were stained using a monoclonal antibody anti β-tubulin and an anti mouse Immunoglobulin G. These antibodies stained neurone cell bodies (quantifying the neuroprotective effect) and neurites (quantifying the neurotrophic effect). The cell nuclei were stained by a fluorescent marker. After 1 h of incubation, cells were washed 3 times in PBS. […] A series of pictures were taken using a camera controlled by computer software. All the images were taken under the same conditions. Analyses of the number of cells labelled with anti β-tubulin antibodies and of the total number of cells (number of stained nuclei) were performed using LUCIA 6.0 software.

The test system of the next data set is pmn mice. To be noted: cited from earlier work.
Data set [2] has as its system rat primary cortical neurones. Briefly: Pre-treatment against glutamate-induced damage (LDH) in cortical neurones. The data set is classed as cell-based. The note with it: for Neuronal survival (% of control): 24 h before and 24 h after glutamate 100 μM 10 min; for Toxicity at the plateau of activity: nanomolar concentration, cortical neurones in vitro. On the procedure: Exposure of rat primary cortical neurones to glutamate increases lactate dehydrogenase (LDH) activity measured 24 h after glutamate exposure, indicating significant neuronal damage. Rat cortical neurones were cultured by modification of a method previously described (Singer, et al., Neuroscience Letters, 1996, 212, pp. 13-16). On day 10 of culture, the medium was changed to a serum-free defined medium. On day 12, the cultures were washed and placed for 24 h in fresh medium containing test compound or vehicle (DMSO, 0.25%). On day 13 neurones were exposed to glutamate (100 μM; 10 min) at 37° C. The cultures were then washed with, and placed in, fresh medium supplemented with test compound or vehicle for a further 24 h before LDH was measured. Neuronal damage was assessed by measuring LDH activity in the media at 24 h after glutamate exposure.

Data set [3] relates to Rat dopaminergic neurones. Kind of data set: Pre-treatment against MPP+-induced loss of dopaminergic neurones. It is filed as cell-based. The note with it: 30 nM, 24 h before and during MPP+ 2 μM 48 h. The protocol: Rat dopaminergic neurones were cultured as previously described (Schinelli et al., Journal of Neurochemistry, 1988, 50, pp. 1900-1907). On day 5, the cultures were washed and placed in fresh medium containing test compounds (30 nM), vehicle (DMSO, 0.25%) or a combination of BDNF (1.85 nM) and GDNF (0.17 nM) for 24 h.
Exposure of rat primary dopaminergic neurones to MPP^+ (2 μM, 24 h) causes a significant decrease in the number of dopaminergic neurones compared to the control. On day 6, MPP^+ (2 μM) was added to the cultures in the presence of test compounds, vehicle or a combination of BDNF and GDNF for a further 48 h. MPP^+ induces neuronal death, via inhibition of complex I in the mitochondria and consequent ATP depletion, resulting in the production of free radicals and induction of apoptosis. After the incubation period, the cultures were fixed with paraformaldehyde in PBS (4%). After fixation, the neurones were permeabilised with Triton ×100 (0.05%) for 30 min. The neurones were then incubated with anti-tyrosine hydroxylase (TH) at 37° C. for 2 h. The neurones were washed three times with PBS, and then incubated with goat anti mouse/Cy3 for 2 h at 37° C. The neurones were mounted and examined with the fluorescence microscopy.

For the next data set, the system named is Rat cortical neurones. Briefly: Neuritogenesis in cortical neurones. It is filed as cell-based. The note with it: 3 nM, 24 h; for Neurones displaying neurites (%): control 39.35 ± 2.06. On the procedure: Rat cortical neurones were cultured by modification of a previously described method (Singer, et al., Neuroscience Letters, 1996, 212, pp. 13-16). Cells were cultured with sarsasapogenin, smilagenin, vehicle (DMSO 0.25%), GDNF, BDNF or NGF for 24 h. For each group, 15 pictures showing neurones displaying neurites were selected at random in each field, and for each neurone the longest neurite was measured. The neurite number was measured by counting the number of neurones displaying neurites, the number of neurones not displaying neurites and the number of total neurones in each field. Six fields per well were examined.
The results are shown in Table 15 below, expressed as the number of neurones with neurites per field as a percentage of the total number of neurones per field.

For another data set, the system named is Rat sensory neurones. Briefly: Neuronal survival in sensory neurones. The data set is classed as cell-based, Wistar rat. To be noted: 0.2 nM, 2 days. The protocol:
Rat sensory neurones were obtained from Wistar rat embryos on the 15th day of gestation. Cells were cultured at 37° C. in 5% CO2/95% air atmosphere. Following 2 days of culturing with sarsasapogenin, smilagenin, vehicle (DMSO, 0.25%) or NGF, sensory neurones were rinsed twice with PBS and fixed in paraformaldehyde (4%) in PBS for 30 min at 4° C. Cells were permeabilised with Triton X-100 (0.1%) and non-specific sites were saturated using foetal bovine serum. Prior to staining, cells were incubated for 2 h at room temperature with a mixture of primary antibodies: anti-neurofilament 68 and 200 in PBS containing foetal bovine serum 5%. Prior to washing, slides were demounted and the cells were washed twice with PBS for 5 min, placed in a dark room for 1 h and incubated with a secondary antibody: anti-mouse coupled with cyanine 3 (Cy3; 1/1600) and an anti-rabbit coupled with fluoroisothiocyanate (FITC; 1/200) in PBS containing foetal bovine serum (5%). Slides were washed twice with PBS for 5 min and mounted on coverslips using Mowiol, an antioxidative solution (9% w/v) in glycerol (22%) buffered with Tris/HCl ([…]; pH 8.5). Slides were left overnight at room temperature to harden and stored in light protected conditions. Slides were viewed using a DAPI/FITC/Cy3 triple filter microscope with a ×20 objective. A series of photographs per well were taken at random using a digital camera.

On to `FC(F)(F)c1cccc(C2=CCN(CCc3ccc4ccccc4c3)CC2)c1` [Xaliproden, 1-[2-(naphth-2-yl)ethyl]-4-(3-trifluoromethylphenyl)-1,2,5,6-tetra-hydropyri-dine hydrochloride, reference compound], for which the “Neurite outgrowth (% of control)” value in data set [1] (30 nM) was 137.57 ± 11.69 % of control; in data set [1] (100 nM), 137.55 ± 6.76 % of control; in data set [1] (300 nM), 131.22 ± 7.93 % of control. Besides, the “Neuronal survival (% of control)” value in data set [1] (30 nM) is given as 110.95 ± 2.14 % of control; in data set [1] (100 nM), 111.18 ± 2.85 % of control; in data set [1] (300 nM), 109.47 ± 3.34 % of control. Moreover, in the data set on pmn mice (literature, CNTF i.p. CNTF-secreting cells, Xaliproden oral from birth, CGP 3466B oral at onset), the “Increase of survival time / lifespan of pmn mice” value is recorded as around 50%.

With `C[C@H]1CC[C@@]2(OC1)O[C@H]1C[C@H]3[C@@H]4CC[C@@H]5C[C@H](O)CC[C@]5(C)[C@H]4CC[C@]3(C)[C@H]1[C@@H]2C` [episarsasapogenin], the “Neuronal survival (% of control)” value was 84.79 ± 2.40 % of control in data set [2] (1 nM); 80.39 ± 5.18 % of control in data set [2] (3 nM); 83.80 ± 4.18 % of control in data set [2] (10 nM); 87.17 ± 2.51 % of control in data set [2] (30 nM); 86.42 ± 2.95 % of control in data set [2] (100 nM); 95.01 ± 4.52 % of control in data set [3]. Further, the “Toxicity at the plateau of activity” value in data set [2] is on record as “without causing any toxicity”.

With `C[C@@H]1CC[C@@]2(OC1)O[C@H]1C[C@H]3[C@@H]4CC[C@@H]5C[C@H](O)CC[C@]5(C)[C@H]4CC[C@]3(C)[C@H]1[C@@H]2C` [epismilagenin], the “Neuronal survival (% of control)” value in data set [2] (3 nM) is recorded as 82.49 ± 3.93 % of control; in data set [2] (10 nM) it was 78.57 ± 2.15 % of control; in data set [2] (30 nM) it was 81.76 ± 2.09 % of control; in data set [2] (100 nM), 78.39 ± 1.75 % of control; in data set [2] (300 nM), 78.86 ± 1.80 % of control; in data set [3], 115.12 ± 4.73 % of control. The “Toxicity at the plateau of activity” value in data set [2] is recorded as “without causing any toxicity”.

Turning to NGF: nerve growth factor, in the data set on Rat cortical neurones, the “Neurite length (% of control)” value was 145.73 ± 5.13 % of control and the “Neurones displaying neurites (%)” value worked out at 52.59 ± 2.43 %. Besides, in the data set on Rat sensory neurones, the “Neuronal survival (% of control)” value is given as 151.50 ± 7.19 % of control.

B1: GDNF: glial-derived neurotrophic factor (protein, UniProt P39905 78-211, looked up)
Glial cell line-derived …: SPDKQMAVLPRRERNRQAAAANPENSRGKGRRGQRGKNRGCVLTAIHLNVTDLGLGYETKEELIFRYCSGSCDAAETTYDKILKNLSRNRRLVSDKVGQACCRPIAFDDDLSFLDDNLVYHILRKHSAKRCGCI
Take B1: in the data set with Rat cortical neurones, the “Neurite length (% of control)” value is on record as 125.30 ± 4.18 % of control and the “Neurones displaying neurites (%)” value worked out at 55.72 ± 1.98 %. Besides, the “Motor neurone survival and disease course in pmn mice” value with pmn mice (literature (Sagot et al. 1996)) is “improved the motor neurone survival but did not slow down the disease”.
